Patent US11198692B2, “Dihydro-pyrrolo-pyridine derivatives” (Pfizer Inc., priority 2017, dated 2021)

Biological target: T1, Human M4 receptors (Homo sapiens, UniProt P08173)
T1 construct: expressed in transfected cells
T1 sequence (P08173 1-479): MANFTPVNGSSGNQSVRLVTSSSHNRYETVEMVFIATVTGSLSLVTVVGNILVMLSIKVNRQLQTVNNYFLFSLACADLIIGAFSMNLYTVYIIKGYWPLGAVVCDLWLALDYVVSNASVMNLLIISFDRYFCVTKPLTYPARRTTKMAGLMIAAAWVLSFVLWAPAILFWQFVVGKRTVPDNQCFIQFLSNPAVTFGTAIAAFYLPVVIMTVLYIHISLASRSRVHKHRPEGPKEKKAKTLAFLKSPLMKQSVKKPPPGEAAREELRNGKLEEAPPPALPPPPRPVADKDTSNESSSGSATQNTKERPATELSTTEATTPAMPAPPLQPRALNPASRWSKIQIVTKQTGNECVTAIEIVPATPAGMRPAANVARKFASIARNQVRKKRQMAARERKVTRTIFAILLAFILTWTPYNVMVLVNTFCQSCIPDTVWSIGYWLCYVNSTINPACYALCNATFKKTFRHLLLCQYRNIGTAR
Assay: M4 PAM cAMP assay (GloSensor)
Assay type: cell-based
Details: HEK293 GloSensor cells expressing hM4, with EC20 acetylcholine and isoproterenol, geometric mean of 2-4 determinations unless footnoted (b: >=5, c: single); for EC50 Mean Asymptote Maximum (%) / Emax: Emax = maximum asymptote of fitted dose response curve; for Emax: read-out: EC50 Mean Asymptote Maximum (%)
Experimental: The M4 cAMP assay was designed to determine the potency and efficacy of muscarinic positive allosteric modulators (PAMs). Human M4 receptors were stably expressed in Human embryonic kidney (HEK293) cells expressed with the Promega GloSensor™ cAMP technology.
HEK293 GloSensor cells expressing hM4 cells were cultured in growth media containing DMEM with 10% FBS, 1% Penicillin/Streptomycin, 500 μg/mL G418, 200 μg/mL Hygomycin B, and 1% Glutamax. When cells had grown to 80%-90% confluency, cells were harvested and seeded at a density of 25,000 cells/40 μL well, in a 384 white walled plates (Becton Dickinson 356661). Plates were incubated at 37 degrees C. and 5% CO2 for use after 24 hours.
Compound Preparation for Activator Screen:
Test compounds were initially prepared as 100% DMSO stock solutions, then transferred and serially diluted in 384-well compound plates (Matrix #4325). Each compound was tested at 10 concentrations in duplicate per experiment. Compound plates are spotted with 0.2 μL/well activator at 400 times the final assay concentration. Positive and negative controls for the compound alone activator response was 10 μM acetylcholine (Sigma # A2661) and DMSO, respectively. EC20 of acetylcholine was also used to define PAM activities.
Promega GloSensor™reagent (Promega # E1291) had previously been aliquotted. For each experiment, a stock solution of GloSensor™ was thawed out and equilibration medium was prepared with 88% CO2-independent media (Invitrogen #18045088), 10% fetal bovine serum and 2% GloSensor™ cAMP Reagent stock solution. Stock solution was mixed. Culture media in cell plates was discarded, then replaced with 40 μL/well pre-warmed equilibration media, then incubated in the dark at room temperature for 2 hours. During the incubation, stimulation media containing agonist and EC20 acetylcholine was prepared. CO2-independent media containing 50 […] Isoproterenol representing an EC80 of b-adrenergic receptor activity (Sigma #16504, 400 times final concentration) and EC20 acetylcholine in 1.25% DMSO was added to all columns of the compound plate, with the exception of column 12 to allow for EC0 control. […] Compounds are now 5 times the final assay concentration. The plate was mixed using a plate agitator. At the end of the 2 hour GloSensor™ incubation, add 10 μL of the CO2-independent media containing agonist, EC20 acetylcholine and isoproterenol to the cell plate. Cell plate was then incubated for 10 minutes at room temperature, and then read using an EnVision plate reader (Perkin Elmer).
Data was exported from the EnVision plate reader. The percent effect for each well was determined using the mean values for the positive and negative controls on each plate for each read, specifically 100*(compound−negative control)/(positive control−negative control). Dose response curves were fitted to the compound percent effect data using a 4-parameter logistic fit model. Data was reported as EC50 and Emax, with the Emax as the maximum asymptote of the fitted dose response curve.

Compound | EC50 Mean Asymptote Maximum (%) | EC50 [nM] | Emax [%]
COc1nc(C)c(C)c2c1CN(C(=O)CC1CN(c3cncnc3)C1)C2 [Example 55, 1-(4-methoxy-6,7-dimethyl-1,3-dihydro-2H-pyrrolo[3,4-c]pyridin-2-yl)-2-[1-(pyrimidin-5-yl)azetidin-3-yl]ethanone] | – | 78.7 | 96.1
CNc1nc(C)c(C)c2c1CN(C(=O)C[C@@H]1C[C@H]1c1cncnc1)C2 (single isomer, unassigned) [Example 29, 1-[6,7-dimethyl-4-(methylamino)-1,3-dihydro-2H-pyrrolo[3,4-c]pyridin-2-yl]-2-[trans-2-(pyrimidin-5-yl)cyclopropyl]ethanone] | – | 690 | 96.3
COCc1nc(C)c(C)c2c1CN(C(=O)CC1CN(c3cccnc3)C1)C2 [Example 54, 1-[4-(methoxymethyl)-6,7-dimethyl-1,3-dihydro-2H-pyrrolo[3,4-c]pyridin-2-yl]-2-[1-(pyridin-3-yl)azetidin-3-yl]ethanone] | – | 153 | 95.8
CNc1nc(C)c(C)c2c1CN(C(=O)CC1CN(c3ccnc(OC(F)F)c3)C1)C2C (single isomer, unassigned) [Example 50, 2-{1-[2-(difluoromethoxy)pyridin-4-yl]azetidin-3-yl}-1-[1,6,7-trimethyl-4-(methylamino)-1,3-dihydro-2H-pyrrolo[3,4-c]pyridin-2-yl]ethanone] | 104^c % | 9.88 | –
CNc1nc(C)c(C)c2c1CN(C(=O)C[C@@H]1C[C@H]1c1ccc(Cl)nc1)C2 (racemic) [Example 33, 2-[trans-2-(6-chloropyridin-3-yl)cyclopropyl]-1-[6,7-dimethyl-4-(methylamino)-1,3-dihydro-2H-pyrrolo[3,4-c]pyridin-2-yl]ethanone] | – | 5.32 | 128
Cc1nc(N(C)C)c2c(c1C)CN(C(=O)CC1CN(c3cccnc3)C1)C2 [Example 17, 1-[4-(dimethylamino)-6,7-dimethyl-1,3-dihydro-2H-pyrrolo[3,4-c]pyridin-2-yl]-2-[1-(pyridin-3-yl)azetidin-3-yl]ethanone] | – | 17.9 | 102
CNc1nc(C)c(C)c2c1CN(C(=O)CC1CN(c3ccnc(C#N)c3)C1)C2 [Example 36, 4-(3-{2-[6,7-dimethyl-4-(methylamino)-1,3-dihydro-2H-pyrrolo[3,4-c]pyridin-2-yl]-2-oxoethyl}azetidin-1-yl)pyridine-2-carbonitrile] | – | 5.46 | 95.6
CNc1nc(C)c(C)c2c1CN(C(=O)CC1CN(c3ccnc(C(F)(F)F)c3)C1)C2C (racemic) [Example 42, 2-{1-[2-(trifluoromethyl)pyridin-4-yl]azetidin-3-yl}-1-[1,6,7-trimethyl-4-(methylamino)-1,3-dihydro-2H-pyrrolo[3,4-c]pyridin-2-yl]ethanone] | – | 6.96 | 116
Cc1[nH]c(=O)c2c(c1C)CN(C(=O)CC1CN(c3cccnc3)C1)C2 [Example 21, 6,7-dimethyl-2-{[1-(pyridin-3-yl)azetidin-3-yl]acetyl}-1,2,3,5-tetrahydro-4H-pyrrolo[3,4-c]pyridin-4-one] | – | 8.72 | 99.7
CNc1nc(C)c(C)c2c1CN(C(=O)CC1CN(c3ccnc(OC(F)F)c3)C1)C2C (single isomer, unassigned) [Example 49, 2-{1-[2-(difluoromethoxy)pyridin-4-yl]azetidin-3-yl}-1-[1,6,7-trimethyl-4-(methylamino)-1,3-dihydro-2H-pyrrolo[3,4-c]pyridin-2-yl]ethanone] | 140^c % | 754 | –
CNc1nc(C)c(C)c2c1CN(C(=O)CC1Cc3ccccc3C1)C2 [Example 24, 2-(2,3-dihydro-1H-inden-2-yl)-1-[6,7-dimethyl-4-(methylamino)-1,3-dihydro-2H-pyrrolo[3,4-c]pyridin-2-yl]ethanone] | – | 7.27 | 98.2
CNc1nc(C)c(C)c2c1CN(C(=O)CC1CN(c3ccnc(C(F)(F)F)c3)C1)C2C (single isomer, unassigned) [Example 44, 2-{1-[2-(trifluoromethyl)pyridin-4-yl]azetidin-3-yl}-1-[1,6,7-trimethyl-4-(methylamino)-1,3-dihydro-2H-pyrrolo[3,4-c]pyridin-2-yl]ethanone] | 107^c % | 1.8 | –
CNc1nc(C)c(C)c2c1CN(C(=O)CCc1cn[nH]c1)C2 [Example 38, 1-[6,7-dimethyl-4-(methylamino)-1,3-dihydro-2H-pyrrolo[3,4-c]pyridin-2-yl]-3-(1H-pyrazol-4-yl)propan-1-one] | – | 13.8 | 102

Continued, values first:

EC50 Mean Asymptote Maximum (%) | EC50 [nM] | Emax [%] | Compound
95.1% | 1.58 | – | CNc1nc(C)c(C)c2c1CN(C(=O)C[C@@H]1C[C@H]1c1cncnc1)C2 (single isomer, unassigned) [Example 30, 1-[6,7-dimethyl-4-(methylamino)-1,3-dihydro-2H-pyrrolo[3,4-c]pyridin-2-yl]-2-[trans-2-(pyrimidin-5-yl)cyclopropyl]ethanone]
– | 19.9 | 89.3 | Cc1nc(C)c2c(c1C)CN(C(=O)CC1CN(c3cccnc3)C1)C2 [Example 12, 2-[1-(Pyridin-3-yl)azetidin-3-yl]-1-(4,6,7-trimethyl-1,3-dihydro-2H-pyrrolo[3,4-c]pyridin-2-yl)ethanone]
– | 2.91 | 106 | CNc1nc(C)c(C)c2c1CN(C(=O)CC1CN(c3ccnc(OC(F)F)c3)C1)C2 [Example 3, 2-{1-[2-(Difluoromethoxy)pyridin-4-yl]azetidin-3-yl}-1-[6,7-dimethyl-4-(methylamino)-1,3-dihydro-2H-pyrrolo[3,4-c]pyridin-2-yl]ethanone]
– | 8.62 | 90.9 | Cc1c2c(c(=O)n(C)c1C)CN(C(=O)CC1CN(c3cccnc3)C1)C2 [Example 1, 5,6,7-Trimethyl-2-{[1-(pyridin-3-yl)azetidin-3-yl]acetyl}-1,2,3,5-tetrahydro-4H-pyrrolo[3,4-c]pyridin-4-one]
– | 1.44 | 95.9 | CNc1nc(C)c(C)c2c1CN(C(=O)CC1CN(c3ccncn3)C1)C2 [Example 23, 1-[6,7-dimethyl-4-(methylamino)-1,3-dihydro-2H-pyrrolo[3,4-c]pyridin-2-yl]-2-[1-(pyrimidin-4-yl)azetidin-3-yl]ethanone]
– | 12.1 | 102 | CNc1nc(C)c(C)c2c1CN(C(=O)CCc1ccc(C#N)cc1)C2 [Example 31, 4-{3-[6,7-dimethyl-4-(methylamino)-1,3-dihydro-2H-pyrrolo[3,4-c]pyridin-2-yl]-3-oxopropyl}benzonitrile]
– | 150 | 109 | Cc1nc(OC(F)F)c2c(c1C)CN(C(=O)CC1CN(c3cncnc3)C1)C2 [Example 56, 1-[4-(difluoromethoxy)-6,7-dimethyl-1,3-dihydro-2H-pyrrolo[3,4-c]pyridin-2-yl]-2-[1-(pyrimidin-5-yl)azetidin-3-yl]ethanone]
– | 43.8 | 92.1 | COc1nc(C)c(C)c2c1CN(C(=O)CC1CN(c3cccnc3)C1)C2 [Example 53, 1-(4-methoxy-6,7-dimethyl-1,3-dihydro-2H-pyrrolo[3,4-c]pyridin-2-yl)-2-[1-(pyridin-3-yl)azetidin-3-yl]ethanone]
